Assays:
Experiment in all cases: relative viability (nuclei count vs DMSO), 5 days (fraction); higher = more cells survive
XMD14-99 + Pemetrexed = compound: CN1CCN(CC1)C2=CC(=C(C=C2)NC3=NC(=C(S3)C(=O)C4=C(C=CC=C4Cl)Cl)N)OC [XMD14-99] + Nc1nc2[nH]cc(CCc3ccc(C(=O)N[C@@H](CCC(=O)O)C(=O)O)cc3)c2c(=O)[nH]1 [Pemetrexed] (partner 0.2 µM)
How it was run: (§1)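 After 5 days of treatment, lung cancer cells in 1536-well plates were fixed and stained in a single step (final 0.05% Triton X-100, 1% formaldehyde, 1 ug/ml Hoechst) and their nuclei counted on 4× images. Treatment had been applied by pin tool the day after seeding as one drug alone or as a fixed anchor-drug dose with five library-drug doses (not always all listed) in √10 steps. Relative viability is the nuclei count of treated wells divided by that of vehicle wells, and values are medians of duplicate plates.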

XMD14-99 + Olaparib = compound: CN1CCN(CC1)C2=CC(=C(C=C2)NC3=NC(=C(S3)C(=O)C4=C(C=CC=C4Cl)Cl)N)OC [XMD14-99] + O=C(c1cc(Cc2n[nH]c(=O)c3ccccc23)ccc1F)N1CCN(C(=O)C2CC2)CC1 [Olaparib] (partner 8 µM)
How it was run: as §1

AZD1208 + Pictilisib = compound: N[C@@H]1CCCN(c2c(/C=C3\SC(=O)NC3=O)cccc2-c2ccccc2)C1 [AZD1208] + CS(=O)(=O)N1CCN(Cc2cc3nc(-c4cccc5[nH]ncc45)nc(N4CCOCC4)c3s2)CC1 [Pictilisib] (partner 1 µM)
How it was run: as §1

AZD1208 + Vorinostat = compound: N[C@@H]1CCCN(c2c(/C=C3\SC(=O)NC3=O)cccc2-c2ccccc2)C1 [AZD1208] + O=C(CCCCCCC(=O)Nc1ccccc1)NO [Vorinostat] (partner 1 µM)
How it was run: as §1

Cell Line	relative viability (XMD14-99 + Pemetrexed; first compound 0.08 µM)	relative viability (XMD14-99 + Pemetrexed; first compound 0.8 µM)	relative viability (XMD14-99 + Pemetrexed; first compound 2.53 µM)	relative viability (XMD14-99 + Pemetrexed; first compound 8 µM)	relative viability (XMD14-99 + Olaparib; first compound 0.08 µM)	relative viability (XMD14-99 + Olaparib; first compound 0.8 µM)	relative viability (XMD14-99 + Olaparib; first compound 2.53 µM)	relative viability (XMD14-99 + Olaparib; first compound 8 µM)	relative viability (AZD1208 + Pictilisib; first compound 0.08 µM)	relative viability (AZD1208 + Pictilisib; first compound 0.253 µM)	relative viability (AZD1208 + Pictilisib; first compound 0.8 µM)	relative viability (AZD1208 + Pictilisib; first compound 2.53 µM)	relative viability (AZD1208 + Pictilisib; first compound 8 µM)	relative viability (AZD1208 + Vorinostat; first compound 0.08 µM)	relative viability (AZD1208 + Vorinostat; first compound 0.253 µM)	relative viability (AZD1208 + Vorinostat; first compound 0.8 µM)	relative viability (AZD1208 + Vorinostat; first compound 2.53 µM)	relative viability (AZD1208 + Vorinostat; first compound 8 µM)
NCI-H358	0.16	0.142	0.178	0.146	0.603	0.773	0.585	0.312	0.35	0.284	0.333	0.299	0.283	0.719	0.646	0.576	0.678	0.618
NCI-H441	0.257	0.289	0.235	0.254	0.526	0.519	0.529	0.455	0.343	0.427	0.34	0.314	0.305	0.742	0.757	0.62	0.616	0.711
NCI-H460	0.067	0.066	0.07	0.0715	0.394	0.432	0.421	0.182	0.341	0.322	0.289	0.308	0.37	0.731	0.858	0.732	0.708	0.737
NCI-H520	0.624	0.625	0.596	0.501	0.344	0.381	0.32	0.196	0.238	0.278	0.201	0.185	0.184	0.735	0.73	0.711	0.768	0.449
NCI-H596	0.465	0.48	0.447	0.494	0.815	0.725	0.646	0.665	0.388	0.349	0.366	0.348	0.328	0.628	0.632	0.558	0.661	0.48
NCI-H647	0.147	0.14	0.209	0.141	0.512	0.561	0.746	0.38	0.463	0.371	0.37	0.339	0.364	0.521	0.701	0.643	0.428	0.256
NCI-H650	0.932	1.03	0.929	0.961	0.39	0.355	0.338	0.327	0.83	0.783	0.793	0.589	0.589	0.436	0.379	0.47	0.414	0.351
NCI-H661	0.86	0.796	0.779	0.678	0.684	0.663	0.619	0.485	0.417	0.391	0.34	0.342	0.355	0.796	0.775	0.827	0.82	0.917
NCI-H838	0.253	0.226	0.255	0.198	0.736	0.754	0.637	0.45	0.374	0.427	0.343	0.378	0.366	0.679	0.661	0.639	0.682	0.689
NCI-H1355	1.09	1.06	0.945	0.896	0.72	0.708	0.715	0.493	0.419	0.39	0.35	0.349	0.306	0.638	0.672	0.558	0.603	0.544
NCI-H1395	0.838	0.953	0.904	0.729	0.475	0.472	0.47	0.364	0.694	0.618	0.553	0.554	0.644	0.974	0.731	0.632	0.698	0.546
NCI-H1437	0.303	0.313	0.307	0.27	0.615	0.622	0.56	0.464	0.369	0.388	0.271	0.246	0.247	0.805	0.93	0.933	1	0.857
NCI-H1650	0.387	0.369	0.359	0.321	0.834	0.597	0.639	0.734	0.529	0.575	0.434	0.395	0.41	0.635	0.464	0.643	0.588	0.472
NCI-H1651	0.605	0.564	0.585	0.477	0.187	0.203	0.147	0.157	0.395	0.556	0.394	0.38	0.408	0.583	0.602	–	0.561	0.556
NCI-H1666	0.853	0.857	0.781	0.764	0.81	0.73	0.737	0.763	0.359	0.553	0.353	0.309	0.374	1.06	1.02	0.887	0.966	0.908
NCI-H1734	0.42	0.409	0.406	0.4	0.605	0.581	0.595	0.385	0.393	0.373	0.347	0.343	0.293	0.731	0.739	0.756	0.663	0.599
NCI-H1755	0.419	0.378	0.37	0.391	0.888	0.815	0.835	0.622	0.377	0.441	0.368	0.326	0.283	0.79	0.893	0.604	0.685	0.555
NCI-H1793	0.947	1	0.83	0.631	0.818	0.915	0.782	0.622	0.362	0.212	0.257	0.385	0.276	0.841	0.949	0.752	0.954	0.713
NCI-H1915	0.472	0.475	0.431	0.426	0.239	0.246	0.268	0.234	0.874	0.899	0.832	0.849	0.84	0.545	0.512	0.525	0.464	0.434
NCI-H1944	0.595	0.605	0.602	0.481	0.448	0.404	0.397	0.283	0.33	0.345	0.306	0.298	0.277	0.596	0.665	0.618	0.468	0.379
NCI-H1975	0.293	0.307	0.333	0.283	0.705	0.861	0.743	0.522	0.285	0.252	0.242	0.28	0.238	0.708	0.799	0.705	0.735	0.767
NCI-H1993	0.708	0.541	0.524	0.448	1.11	0.942	0.943	0.793	–	0.878	0.692	0.807	0.869	0.584	0.63	0.726	0.548	0.501
NCI-H2009	1.07	1	0.947	0.997	0.662	0.835	0.656	0.538	0.725	0.811	0.75	0.553	0.714	0.747	0.777	0.698	0.788	0.67
NCI-H2023	0.249	0.249	0.224	0.167	0.442	–	0.311	0.122	0.193	0.223	0.203	0.183	0.209	0.627	0.769	0.517	0.689	0.571
NCI-H2085	0.9	0.899	0.839	0.65	0.773	0.694	0.718	0.605	0.418	0.459	0.36	0.43	0.564	0.796	0.821	0.749	0.82	0.751
NCI-H2087	0.681	0.644	0.597	0.611	0.506	0.476	0.515	0.382	0.665	0.842	0.654	0.561	0.732	0.789	0.795	0.752	0.73	0.406
NCI-H2126	0.634	0.681	0.677	0.537	0.96	0.87	0.736	0.759	0.437	0.476	0.436	0.424	0.441	0.745	0.669	0.676	0.535	0.563
NCI-H2170	0.247	0.266	0.251	0.247	0.543	0.565	0.537	0.466	0.319	0.263	0.254	0.213	0.224	0.864	0.923	0.76	0.779	0.5
NCI-H2228	0.324	0.319	0.398	0.257	0.776	0.603	0.706	0.273	0.207	0.328	0.381	–	0.285	0.647	0.624	0.793	0.448	0.464
